In patent US10537552B2, “Substituted 5-hydroxyoxindoles and their use as analgesics and fever reducers” (CARAFE DRUG INNOVATION, LLC, priority 2015, dated 2020):
Where “and” joins values, the source holds several entries; their conditions need not be identical. Equal values may be shown once.

How the values were obtained:
[1] = system: acetic acid-induced writhing responses; assay: acetic acid writhing test (abdominal irritant test), Example 10; format: in vivo, C57/B16 mice
Experimental: This example compares the antinociception (animal equivalent of analgesia) produced by the oral administration of 5-hydroxy-7-methyloxindole vs. acetaminophen. Initial studies were performed using 10% DMSO/Cremophor™ as the vehicle. To enable a comparison with other datasets, 5-hydroxy-7-methyloxindole was subsequently tested using 6% Tween 20® reagent as the vehicle.
Male C57/B16 mice (Taconic), 8 weeks of age, were used in this study. The mice were received at Drexel University at least one week prior to testing and housed in standard polycarbonate cages with filter tops. Experiments were done in accordance with the guidelines of the National Institutes of Health and with the guidelines of the Committee for Research and Ethical Issues of IASP and were approved by the Animal Care and Use Committee of Drexel University College of Medicine. Four to five animals were housed per cage and food and water were provided ad libitum. Prior to initiation of the study, the animals were examined to assure adequate health and suitability. Mice were maintained on a 12/12 light/dark cycle and room temperature was maintained between 20 and 23° C. with a relative humidity maintained between 30% and 70%.
Compounds were administered orally 10 mL/kg, with a 30 minute pretreatment time. All compounds were tested in naïve animals. […] Each compound was dissolved in DMSO as a stock solution and mixed with Cremophor™ (1:1 v/v) before testing. The mixed solutions were diluted 1:4 with sterile water (the final concentration of DMSO/Cremophor™ reagent was 10%) immediately before administration to maximize the amount of compound in solution and improve the uniformity of any compound substance remaining in suspension. It is possible that some of the drug was in suspension at the time of administration. Each compound was initially tested in 5 mice at a dose of 300 mg/kg in the writhing test to assess their ability to alleviate abdominal pain. Based on the results of the initial test, the dose-response relationship for each active compound was determined by measuring the level of analgesia produced by at least 3 escalating doses of the test compound. The measurement of inhibition of writhing for acetaminophen and 5-hydroxy-7-methyloxindole were repeated using 6% Tween® 20 reagent as the vehicle. In this case, both compounds were clearly in suspension when administered to the animals.
A modified version of the standard abdominal irritant test was used to assess analgesia. Mice were habituated for 1 h in a transparent test box (5×5×10 inches) before any injections. Vehicle or test compound was administered p.o. (per os) 30 min prior to an intraperitoneal (i.p.) injection of 0.6% acetic acid (10 mL/kg) and the number of writhing responses (stretching of the hind limbs accompanied by a contraction of the abdominal muscles) to the acetic acid injection were counted over the subsequent 30 min period. The mice from each cage were randomly assigned to the dosing groups and the mice from each group were injected in a random order.
The one-way ANOVA was used to determine significant difference from the vehicle control treated animal. Dose response data for 5-hydroxy-7-methyloxindole was fit by non-linear regression analysis to a logit model to provide an estimate of ED50.

[2] = system: liver (acute liver toxicity); assay: plasma aminotransferase activity (ALT, AST) after intragastric dosing; format: in vivo, C57BL/6 mice; settings: for AST / ALT: individual mice 1-8; for ALT, Mean / AST, Mean: mean of 8 mice; for hepatotoxicity, overall assessment (ALT, AST, pathohistology): mice, intragastric, summary statement
Experimental: This example was performed to determine if acute liver toxicity results from oral administration of 5-hydroxy-7-methyloxindole (CaRafe Drug Innovation, LLC) compared to the known acute liver toxicity produced by acetaminophen.
Acetaminophen was acquired from Sigma-Aldrich Corp. (St. Louis, Mo., USA); 5-hydroxy-7-methyloxindole was provided by CaRafe Drug Innovation, LLC (Norristown, Pa., USA) in the form of a powder. […] Based on the efficacy testing performed at Drexel University, 5-hydroxy-7-methyloxindole was suspended in 6% Tween® 20 reagent with vortexing. This procedure provided a crude suspension, but it precipitated after some time, therefore vortexing was repeated prior to each injection. Acetaminophen was prepared in the same vehicle (6% Tween® 20 reagent) using light magnetic stirring.
Ten-week old male C57BL/6 mice were used in all of the experiments. All protocols were approved before study initiation by the Ethics Committee of University of Zagreb School of Medicine (Zagreb, Croatia) and the study was conducted in accordance with accepted standards of humane animal care.
In all experiments, mice were fasted overnight and then allocated randomly to receive either acetaminophen or equimolar dose of 5-hydroxy-7-methyloxindole by the intragastric route. Food was returned 4 h after the treatment. The two experimental groups were:
(a) Lower-dose group: Mice were administered acetaminophen (300 mg/kg) or 5-hydroxy-7-methyloxindole (324 mg/kg). After 7 h, the mice were sacrificed and liver and blood samples were taken for the analysis.
Seven hours after receiving the second injection, mice were sacrificed and liver and blood samples were taken for analysis.
After collection, the blood samples were centrifuged, and plasma was separated and stored at −80° C. for 24 h. Activities of ALT (alanine transaminase) and of AST (aspartate transaminase) in plasma were determined using standard laboratory techniques in a clinical diagnostic laboratory.

COX1 (h) = target: T1, COX1 (h) (Homo sapiens, UniProt P23219); assay: COX1 enzyme assay; format: biochemical
T1 construct: host or cells: Sf9 cells
T1 sequence (P23219 24-599): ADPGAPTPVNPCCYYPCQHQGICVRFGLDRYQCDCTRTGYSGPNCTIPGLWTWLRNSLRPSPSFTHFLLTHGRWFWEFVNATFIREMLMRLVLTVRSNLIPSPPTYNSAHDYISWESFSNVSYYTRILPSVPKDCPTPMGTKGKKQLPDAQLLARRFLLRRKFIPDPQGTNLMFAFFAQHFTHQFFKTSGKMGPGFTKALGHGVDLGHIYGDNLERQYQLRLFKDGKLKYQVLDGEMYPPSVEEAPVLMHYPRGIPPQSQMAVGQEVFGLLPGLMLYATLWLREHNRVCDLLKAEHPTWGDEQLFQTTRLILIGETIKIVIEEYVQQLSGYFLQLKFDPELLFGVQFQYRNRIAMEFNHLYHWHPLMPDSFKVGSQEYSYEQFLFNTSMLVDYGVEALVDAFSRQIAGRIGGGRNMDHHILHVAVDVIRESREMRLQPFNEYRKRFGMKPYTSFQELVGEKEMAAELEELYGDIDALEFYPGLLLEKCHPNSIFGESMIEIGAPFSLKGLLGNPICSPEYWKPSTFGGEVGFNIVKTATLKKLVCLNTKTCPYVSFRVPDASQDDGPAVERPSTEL
Experimental: The assay was performed according to the procedure described in Glaser, European Journal of Pharmacology, 281:107-111, 1995, which is incorporated by reference. Recombinant enzymes were reconstituted in buffer. The enzyme preparations were preincubated with DMSO vehicle or compounds in DMSO for 5 min at 37° C. and the human recombinant enzyme expressed in Sf9 cells.
An inhibition greater than about 50% represented significant effects of the test compound. An inhibition of about 25% to about 50% was indicative of weak to moderate effects. An inhibition less than about 25% are not considered significant and may be primarily attributable to variability of the signal around the control level.

[3] = 5-hydroxy-7-methyloxindole 324 mg/kg intragastric, 7 h

## Cc1cc(O)cc2c1NC(=O)C2 [5-hydroxy-7-methyloxindole, 5-Hydroxy-7-methyloxindole]
[1]; C57/B16 mice, p.o. 30 min before i.p. 0.6% acetic acid, 10% DMSO/Cremophor vehicle, 30 to 300 mg/kg, FIG. 2, 3
  inhibition of acetic acid-induced response (writhing): robust and dose-related inhibition
[1]; C57/B16 mice, p.o., 6% Tween 20 vehicle (suspension), 100 and 300 mg/kg, FIG. 5, 6
  inhibition of acetic acid-induced response (writhing): the highest dose produced an effect comparable to that observed with the DMSO/Cremophor™ vehicle
[1]; Mus musculus, po, C57/B16 mice, p.o., 10% DMSO/Cremophor vehicle, FIG. 4, read-out: ED50 (logit model fit of dose-response)
  ED50: 76 mg/kg
[1]; mouse model, oral, summary statement
  oral antinociceptive (analgesic) effect compared with acetaminophen: equal to, and was slightly more potent than, acetaminophen
[2]; higher-dose protocol: two cumulative injections 2.5 h apart, 7 h after second injection
  ALT and AST levels, in words: normal or only minimally elevated levels of ALT and AST
[2]; 5-hydroxy-7-methyloxindole 324 mg/kg intragastric, 7 h after treatment
  AST: 80 U/L (2×) and 60 U/L (2×) and 120 U/L and 330 U/L and 170 U/L and 90 U/L
[2]; 5-hydroxy-7-methyloxindole 324 mg/kg intragastric, 7 h after treatment, 6% Tween 20
  ALT: 30 U/L (5×) and 20 U/L and 50 U/L (2×)
[2]; 5-hydroxy-7-methyloxindole 540 mg/kg total (two 270 mg/kg) intragastric, 7 h after second injection
  AST: 60 (2×) and 120 (3×) and 100 and 70 and 110
[2]; 5-hydroxy-7-methyloxindole 540 mg/kg total (two 270 mg/kg, 2.5 h apart) intragastric, 7 h after second injection
  ALT: 20 (3×) and 30 (3×) and 50 (2×)
[2]; lower-dose protocol: acetaminophen 300 mg/kg or 5-hydroxy-7-methyloxindole 324 mg/kg, 7 h
  ALT and AST levels / liver damage, in words: normal or only minimally elevated
[2]; [3]
  ALT, Mean: 34 U/L
  AST, Mean: 124 U/L
[2]; 5-hydroxy-7-methyloxindole 540 mg/kg total, 7 h after second injection
  AST, Mean: 95 U/L
[2]; 5-hydroxy-7-methyloxindole 540 mg/kg total, 7 h after second injection, in U/L
  ALT, Mean: 31.25
[2]; 6% Tween 20
  hepatotoxicity, overall assessment (ALT, AST, pathohistology): devoid of hepatotoxic effect
[2]; 6% Tween 20, listed as 5-Hydroxy-7-methyloxindole
  hepatotoxicity, overall assessment (ALT, AST, pathohistology): significantly less hepatotoxicity than acetaminophen
COX1 (h)
  binding to COX1 receptor, in words: binds minimally, if at all
COX1 (h); test concentration 1 × 10^−5 M, human recombinant enzyme expressed in Sf9 cells
  inhibition at 10 µM: -29%
